These results are taken from EP0085842A1, “Antimycosic agents” (BAYER AG, priority 1982, dated 1983).

The test system of experiment [1] is Trichophyton mentagrophytes. In words: Antimycotic in-vivo activity (local) in experimental guinea pig trichophytosis. More on the design: species or system Meerschweinchen; key: +++++: sehr gute Wirkung = keine Infektionszeichen am 12.-15.Tag p.i.; ++++: gute Wirkung = geringe Rötung, vereinzelt Schuppen; +++: Wirkung = Rötung, Schuppung, ohne Haarausfall; ++: schwache Wirkung = Rötung, Schuppung, Haarausfall; +: Spur Wirkung = flächiger Haarausfall, entzündliche Hautreaktion.

The subject of the next experiment is Candida albicans. In words: Antimycotic in-vitro activity, serial dilution test (MIC). The class given is cell-based. The settings on record: Fleischextrakt-Traubenzucker-Bouillon, 20°C, 24 to 96 h, inoculum 5 x 10^4 Keime/ml, read-out: MHK-Werte in γ/ml Nährmedium Candida albicans. Here is the method:
(§1) Versuchsbeschreibung: • Die in-vitro-Prüfungen wurden im Reihenverdünnungstest mit Keiminokula von durchschnittlich 5 x 10^4 Keimen/ml Substrat durchgeführt. Als Nährmedium dienten • a) für Dermatophyten und Schimmelpilze: Sabouraud's milieu d'epreuve • b) für Hefen: • Fleischextrakt-Traubenzucker-Bouillon.
(§2) Die Bebrütungstemperatur betrug 20°C, die Bebrütungsdauer lag bei 24 bis 96 Stunden bei Hefen und 96 Stunden bei Dermatophyten und Schimmelpilzen.

A further experiment relates to Aspergillus fumigatus. The experiment is described as above. The class given is cell-based. The settings on record: Sabouraud's milieu d'epreuve, 20°C, 96 h, inoculum 5 x 10^4 Keime/ml, read-out: MHK-Werte in γ/ml Nährmedium Aspergillus fumigatus. As for the experimental part:
as §1, §2

The next experiment has as its system Microsporum canis. The description is as above. In kind it is cell-based. The settings on record: Sabouraud's milieu d'epreuve, 20°C, 96 h, inoculum 5 x 10^4 Keime/ml, read-out: MHK-Werte in γ/ml Nährmedium Microsporum canis. As for the experimental part: as §1, §2
The subject of the next experiment is Torulopsis glabrata. The description is as above. The following applies: Nakaseomyces glabratus; Fleischextrakt-Traubenzucker-Bouillon, 20°C, 24 to 96 h, inoculum 5 x 10^4 Keime/ml; read-out: MHK-Werte in γ/ml Nährmedium Torulopsis glabrata. The class given is cell-based. Here is the method: as §1, §2
For a further experiment, the system named is Candida-Zellen. In words: Antimycotic in-vivo activity (oral) in mouse candidosis. The following applies: for Wirkung: mice infected i.v. with Candida, oral 50 - 100 mg/kg one hour before and seven hours after infection, survivors on day 6 p.i.; for Wirkung compared with known compounds (A), (B), (C) and (D): mouse candidosis, oral 50 - 100 mg/kg. More on the design: species or system Mäuse vom Typ SPF-CF1. Here is the method: Mäuse vom Typ SPF-CF1 wurden intravenös mit 1 - 2 x 10^6 logarithmisch wachsenden Candida-Zellen, die in physiologischer Kochsalzlösung suspendiert werden, infiziert. Eine Stunde vor und sieben Sunden nach der Infektion werden die Tiere mit jeweils 50 - 100 mg/kg Körpergewicht der Präparate oral behandelt.
Unbehandelte Tiere starben 3 bis 6 Tage post infektionem. Die Überlebensrate am 6. Tag post infektionem betrug bei unbehandelten Kontrolltieren etwa 5 %.
+++++ = sehr gute Wirkung = 90 % Überlebende am 6.Tag p.i. ++++ = gute Wirkung = 80 % Überlebende am 6.Tag p.i. +++ = Wirkung = 60 % Überlebende am 6.Tag p.i. ++ = schwache Wirkung = 40 % Überlebende am 6.Tag p.i. + = Spur Wirkung = unter 40 % Überlebende am 6.Tag p.i. k.W. = keine Wirkung

The next experiment has as its system Trichophyton mentagr. Description: Antimycotic in-vitro activity, serial dilution test (MIC). The class given is cell-based, Trichophyton mentagrophytes. The following applies: Sabouraud's milieu d'epreuve, 20°C, 96 h, inoculum 5 x 10^4 Keime/ml, read-out: MHK-Werte in γ/ml Nährmedium Trichophyton mentagr. Here is the method: as §1, §2
Setting [2] is: local treatment, trichophytosis model.
Setting [3] is: local, 1 x daily from day 3 p.i., 15 %ige Lösung in Dimethylsulfoxid:Glycerin = 1:4, infection signs day 12-15 p.i.

In brackets after ≈: the same amount, converted by molar mass.

As to `CC(C)(CF)C(O)(CSc1ccc(Cl)cc1)Cn1cncn1` (stereo not drawn) [Beispiel 10], the figures for the “Wirkung” value (in experiment [1] (setting [2]); in experiment [1] (setting [3]); in the experiment with Candida-Zellen) were “Wirkung bis gute Wirkung”, “++++” and “++++ (gute Wirkung = 80 % Überlebende am 6.Tag p.i.)”, respectively. Moreover, the MIC in the experiment on Candida albicans is 4 µg/mL (≈ 11.6 µM); in the experiment on Aspergillus fumigatus, below 1 µg/mL; with Microsporum canis, below 1 µg/mL; in the experiment on Torulopsis glabrata, 16 µg/mL (≈ 46.5 µM); in the experiment on Trichophyton mentagr., below 1 µg/mL. Besides, the “Wirkung compared with known compounds (A), (B), (C) and (D)” value (“Wirkung compared with known compounds” below) in the experiment on Candida-Zellen is “bessere Wirkung”.
Take `CC(C)(CF)C(O)(COc1ccc(Cl)cc1)Cn1cncn1` (stereo not drawn) [Beispiel 7]: the “Wirkung” value in experiment [1] (setting [2]) was “Wirkung bis gute Wirkung”; in experiment [1] (setting [3]) it was “+++”; in the experiment with Candida-Zellen, “+++++ (sehr gute Wirkung = 90 % Überlebende am 6.Tag p.i.)”. For the same compound, the MIC with Candida albicans was below 1 µg/mL; with Aspergillus fumigatus, below 1 µg/mL; in the experiment with Microsporum canis, 2 µg/mL (≈ 6.1 µM); in the experiment on Torulopsis glabrata, below 1 µg/mL; with Trichophyton mentagr., below 1 µg/mL. Further, the “Wirkung compared with known compounds” value in the experiment on Candida-Zellen is “bessere Wirkung”.
For the compound `CC(C)(CF)C(O)(COc1ccc(Cl)cc1Cl)Cn1cncn1` (stereo not drawn) [Beispiel 9], the figures for the “Wirkung” value (in experiment [1] (setting [2]); in experiment [1] (setting [3]); in the experiment with Candida-Zellen) were “Wirkung bis gute Wirkung”, “++++” and “+++ (Wirkung = 60 % Überlebende am 6.Tag p.i.)”, respectively. In addition, the MIC was 4 µg/mL (≈ 11 µM) in the experiment on Candida albicans; 8 µg/mL (≈ 22.1 µM) with Aspergillus fumigatus; 2 µg/mL (≈ 5.52 µM) with Microsporum canis; 4 µg/mL (≈ 11 µM) in the experiment with Torulopsis glabrata; below 1 µg/mL in the experiment with Trichophyton mentagr.. Also, in the experiment on Candida-Zellen, the “Wirkung compared with known compounds” value is given as “bessere Wirkung”.
Take `Cc1cc(Cl)ccc1OCC(O)(Cn1cncn1)C(C)(CF)CF` (stereo not drawn) [Beispiel 15]: the “Wirkung” value in experiment [1] (setting [2]) was “Wirkung bis gute Wirkung”; in experiment [1] (setting [3]) it was “++++”; in the experiment with Candida-Zellen, “++++ (gute Wirkung = 80 % Überlebende am 6.Tag p.i.)”. Besides, the MIC in the experiment with Candida albicans is below 1 µg/mL; with Aspergillus fumigatus, 8 µg/mL (≈ 22.2 µM); with Microsporum canis, below 1 µg/mL; in the experiment with Torulopsis glabrata, 4 µg/mL (≈ 11.1 µM); in the experiment on Trichophyton mentagr., below 1 µg/mL. In addition, the “Wirkung compared with known compounds” value in the experiment on Candida-Zellen was “bessere Wirkung”.
